Reference: US20260207615A1, “FLUOROPYRIDOPYRIMIDINE AND FLUOROQUINAZOLINE DERIVATIES AND METHODS OF USE THEREOF” (Frontier Medicines Corporation, priority 2022, published 2026)

What follows are compounds tested against T1, KRAS G12C and cRAF interaction (Homo sapiens, UniProt P01116, C118S/C51S/C80L/G12C) (assay: Inhibition of KRAS G12C and cRAF binding (AlphaScreen)). Conditions: KRAS G12C (Cys-light, aa 1-169) preloaded with GMPPNP, cRaf RBD (aa 50-131), 2 hours incubation.
T1 construct: truncated version comprising amino acids 1-169
T1 sequence (P01116 1-169 isoform P01116-2 G12C/C51S/C80L/C118S): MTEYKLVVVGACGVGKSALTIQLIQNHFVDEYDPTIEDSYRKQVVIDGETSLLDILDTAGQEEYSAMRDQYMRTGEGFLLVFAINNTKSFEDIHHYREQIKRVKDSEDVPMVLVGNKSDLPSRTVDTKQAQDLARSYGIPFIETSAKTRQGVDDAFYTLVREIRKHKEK
Type: biochemical
Experimental: The AlphaScreen technology was used to determine IC50s for compound inhibition of KRAS G12C (present as the Cys-light (C51S, C80L and C118S), truncated version comprising amino acids 1-169) and cRAF interaction. Compounds were diluted in 100% DMSO and each compound concentration was spotted at 200 nl/well onto low volume, white 384 well plates. The KRAS G12C contained a biotin-AviTag and the cRaf, as Ras-binding domain (amino acids 50-131, RBD), was GST-tagged. KRAS G12C was preloaded with the GTP analogue Guanosine 5′-[β,γ-imido]triphosphate (GMPPNP). The KRAS G12C was diluted in 25 mM Hepes, pH 7.4, 150 mM NaCl, 5 mM MgCl2, 0.01% TritonX-100 and 10 μM GMPPNP and added at 10 μl/well to compound-spotted plates resulting in a DMSO concentration of 2%. Plates were incubated for 2 hours. A mixture of RBD and the AlphaScreen streptavidin donor and glutathione acceptor beads diluted in 25 mM Hepes, pH 7.4, 150 mM NaCl, 5 mM MgCl2, 0.01% TritonX-100 and 2% DMSO was then added at 10 μl/well and incubated for 60-90 minutes before the samples were read for emission at 570 nm after excitation of the donor beads at 680 nm. All incubations were performed at room temperature. The final top compound concentration was 50 μM with 1:3 titrations for 10-point dose response curves. Final assay conditions were 0.5 nM KRAS G12C, 0.75 nM RBD and 5 μg/ml each of AlphaScreen donor and acceptor beads. IC50S were determined using nonlinear regression fit of [inhibitor] vs. response (4 parameters).
A counter assay was also set up to rule out inhibitors of the AlphaScreen technology itself. Compound plates were incubated for 2 hours as above with buffer only.
The AlphaScreen beads were added as above except biotin-AviTag-GST was substituted for the RBD. Samples were read and analyzed as above.

First: C=CC(=O)N1CCN(c2nc(OC[C@@]34CCCN3C[C@H](F)C4)nc3c(F)c(-c4cccc5ccc(F)c(Cl)c45)ncc23)CC12COC2 [Example 33, 1-(8-(7-(8-chloro-7-fluoronaphthalen-1-yl)-8-fluoro-2-(((2R,7aS)-2-fluorotetrahydro-1H-pyrrolizin-7a(5H)-yl)methoxy)pyrido[4,3-d]pyrimidin-4-yl)-2-oxa-5,8-diazaspiro[3.5]nonan-5-yl) prop-2-en-1-one]
Second: C=CC(=O)N1CCN(c2nc(OC[C@@]34CCCN3C[C@H](F)C4)nc3c(F)c(-c4cccc5ccc(F)c(F)c45)ncc23)CC12COC2 [Example 35, 1-(8-(7-(7,8-difluoronaphthalen-1-yl)-8-fluoro-2-(((2R,7aS)-2-fluorotetrahydro-1H-pyrrolizin-7a(5H)-yl)methoxy)pyrido[4,3-d]pyrimidin-4-yl)-2-oxa-5,8-diazaspiro[3.5]nonan-5-yl) prop-2-en-1-one]
The IC50 of the first is higher: 10 to 100 nM for the first, less than 10 nM for the second. The second is the more potent here.

`C#Cc1c(F)ccc2cccc(-c3ncc4c(N5CCN(C(=O)/C=C/CN6[C@@H]7CC[C@H]6COC7)C6(COC6)C5)nc(OC[C@@]56CCCN5C[C@H](F)C6)nc4c3F)c12` [Example 34, (E)-4-((1R,5S)-3-oxa-8-azabicyclo[3.2.1]octan-8-yl)-1-(8-(7-(8-ethynyl-7-fluoronaphthalen-1-yl)-8-fluoro-2-(((2R,7aS)-2-fluorotetrahydro-1H-pyrrolizin-7a(5H)-yl)methoxy)pyrido[4,3-d]pyrimidin-4-yl)-2-oxa-5,8-diazaspiro[3.5]nonan-5-yl) but-2-en-1-one] and `C#Cc1c(F)ccc2cccc(-c3ncc4c(N5CCN(C(=O)/C=C/CN6C[C@@H]7C[C@H]6CO7)C6(COC6)C5)nc(OC[C@@]56CCCN5C[C@H](F)C6)nc4c3F)c12` [Example 42, (E)-4-((1S,4S)-2-oxa-5-azabicyclo[2.2.1]heptan-5-yl)-1-(8-(7-(8-ethynyl-7-fluoronaphthalen-1-yl)-8-fluoro-2-(((2R,7aS)-2-fluorotetrahydro-1H-pyrrolizin-7a(5H)-yl)methoxy)pyrido[4,3-d]pyrimidin-4-yl)-2-oxa-5,8-diazaspiro[3.5]nonan-5-yl) but-2-en-1-one] cannot be ordered by IC50: less than 10 nM for the first, less than 10 nM for the second.

First: O=C(/C=C/CN1[C@@H]2CC[C@H]1COC2)N1CCN(c2nc(OCC34CCCN3CCC4)nc3c(F)c(-c4cccc5cccc(Cl)c45)ncc23)CC12COC2 [Example 36, (E)-4-((1R,5S)-3-oxa-8-azabicyclo[3.2.1]octan-8-yl)-1-(8-(7-(8-chloronaphthalen-1-yl)-8-fluoro-2-((tetrahydro-1H-pyrrolizin-7a(5H)-yl)methoxy)pyrido[4,3-d]pyrimidin-4-yl)-2-oxa-5,8-diazaspiro[3.5]nonan-5-yl) but-2-en-1-one]
Second: CN1CC[C@@H]1/C=C/C(=O)N1CCN(c2nc(OC[C@@]34CCCN3C[C@H](F)C4)nc3c(F)c(-c4cccc5cccc(Cl)c45)ncc23)CC12COC2 [Example 37, (E)-1-(8-(7-(8-chloronaphthalen-1-yl)-8-fluoro-2-(((2R,7aS)-2-fluorotetrahydro-1H-pyrrolizin-7a(5H)-yl)methoxy)pyrido[4,3-d]pyrimidin-4-yl)-2-oxa-5,8-diazaspiro[3.5]nonan-5-yl)-3-((R)-1-methylazetidin-2-yl) prop-2-en-1-one]
The IC50 of the first is lower: less than 10 nM for the first, 10 to 100 nM for the second. The first is the more potent here.

`C=CC(=O)N1CCN(c2nc(OC[C@@]34CCCN3C[C@H](F)C4)nc3c(F)c(-c4cccc(Cl)c4C4CC4)ncc23)CC12COC2` [Example 38, 1-(8-(7-(3-chloro-2-cyclopropylphenyl)-8-fluoro-2-(((2R,7aS)-2-fluorotetrahydro-1H-pyrrolizin-7a(5H)-yl)methoxy)pyrido[4,3-d]pyrimidin-4-yl)-2-oxa-5,8-diazaspiro[3.5]nonan-5-yl) prop-2-en-1-one] and `C=CC(=O)N1CCN(c2nc(OC[C@@]34CCCN3C[C@H](F)C4)nc3c(F)c(-c4cccc(Cl)c4C(F)(F)F)ncc23)CC12COC2` [Example 39, 1-(8-(7-(3-chloro-2-(trifluoromethyl)phenyl)-8-fluoro-2-(((2R,7aS)-2-fluorotetrahydro-1H-pyrrolizin-7a(5H)-yl)methoxy)pyrido[4,3-d]pyrimidin-4-yl)-2-oxa-5,8-diazaspiro[3.5]nonan-5-yl) prop-2-en-1-one] fall in the same range of IC50: 10 to 100 nM for the first, 10 to 100 nM for the second.

Compared with `CC(C#CC(=O)N1CCN(c2nc(OC[C@@]34CCCN3C[C@H](F)C4)nc3c(F)c(-c4cccc5cccc(Cl)c45)ncc23)CC12COC2)N1CCOCC1` (stereo partly drawn) [Example 40, 1-(8-(7-(8-chloronaphthalen-1-yl)-8-fluoro-2-(((2R,7aS)-2-fluorotetrahydro-1H-pyrrolizin-7a(5H)-yl)methoxy)pyrido[4,3-d]pyrimidin-4-yl)-2-oxa-5,8-diazaspiro[3.5]nonan-5-yl)-4-morpholinopent-2-yn-1-one], `C=CC(=O)N1CCN(c2nc(OC[C@@]34CCCN3C[C@H](F)C4)nc3c(F)c(-c4cccc5ccc(F)c(CC)c45)ncc23)CC12COC2` [Example 45, 1-(8-(7-(8-ethyl-7-fluoronaphthalen-1-yl)-8-fluoro-2-(((2R,7aS)-2-fluorotetrahydro-1H-pyrrolizin-7a(5H)-yl)methoxy)pyrido[4,3-d]pyrimidin-4-yl)-2-oxa-5,8-diazaspiro[3.5]nonan-5-yl) prop-2-en-1-one] is lower in IC50: 100 to 500 nM for the first, less than 10 nM for the second.

`Cc1nccc(/C=C/C(=O)N2CCN(c3nc(OC[C@@]45CCCN4C[C@H](F)C5)nc4c(F)c(-c5cc(O)cc(Cl)c5C5CC5)ncc34)CC23COC3)n1` [Example 41, (E)-1-(8-(7-(3-chloro-2-cyclopropyl-5-hydroxyphenyl)-8-fluoro-2-(((2R,7aS)-2-fluorotetrahydro-1H-pyrrolizin-7a(5H)-yl)methoxy)pyrido[4,3-d]pyrimidin-4-yl)-2-oxa-5,8-diazaspiro[3.5]nonan-5-yl)-3-(2-methylpyrimidin-4-yl) prop-2-en-1-one] and `C#Cc1c(F)ccc2cccc(-c3ncc4c(N5CCN(C(=O)/C=C/CN6CC[C@@H](F)C6)C6(COC6)C5)nc(OC[C@@]56CCCN5C[C@H](F)C6)nc4c3F)c12` [Example 44, (E)-1-(8-(7-(8-ethynyl-7-fluoronaphthalen-1-yl)-8-fluoro-2-(((2R,7aS)-2-fluorotetrahydro-1H-pyrrolizin-7a(5H)-yl)methoxy)pyrido[4,3-d]pyrimidin-4-yl)-2-oxa-5,8-diazaspiro[3.5]nonan-5-yl)-4-((R)-3-fluoropyrrolidin-1-yl) but-2-en-1-one] cannot be ordered by IC50: less than 10 nM for the first, less than 10 nM for the second.

First: C#Cc1c(F)ccc2cccc(-c3ncc4c(N5CCN(C(=O)/C=C/CN6CC[C@@H](OC)C6)C6(COC6)C5)nc(OC[C@@]56CCCN5C[C@H](F)C6)nc4c3F)c12 [Example 43, (E)-1-(8-(7-(8-ethynyl-7-fluoronaphthalen-1-yl)-8-fluoro-2-(((2R,7aS)-2-fluorotetrahydro-1H-pyrrolizin-7a(5H)-yl)methoxy)pyrido[4,3-d]pyrimidin-4-yl)-2-oxa-5,8-diazaspiro[3.5]nonan-5-yl)-4-((R)-3-methoxypyrrolidin-1-yl) but-2-en-1-one]
Second: C#Cc1c(F)ccc2cccc(-c3ncc4c(N5CCN(C(=O)/C=C/CN6C[C@H]7C[C@@H]6CO7)C6(COC6)C5)nc(OC[C@@]56CCCN5C[C@H](F)C6)nc4c3F)c12 [Example 46, (E)-4-((1R,4R)-2-oxa-5-azabicyclo[2.2.1]heptan-5-yl)-1-(8-(7-(8-ethynyl-7-fluoronaphthalen-1-yl)-8-fluoro-2-(((2R,7aS)-2-fluorotetrahydro-1H-pyrrolizin-7a(5H)-yl)methoxy)pyrido[4,3-d]pyrimidin-4-yl)-2-oxa-5,8-diazaspiro[3.5]nonan-5-yl) but-2-en-1-one]
The IC50 of the first is higher: 10 to 100 nM for the first, less than 10 nM for the second. The second is the more potent here.
